According to article PMC11859928, “Design, Synthesis, and Antiproliferative Activity of Novel Indole/1,2,4-Triazole Hybrids as Tubulin Polymerization Inhibitors” (Pharmaceuticals, 2025):

Columns and labels:
[1] = test system: K-562; assay: NCI five-dose assay; format: cell-based, human; conditions: K-562, Leukemia; for CC50 / GI50: Homo sapiens, K562; for CC50: 48 h, read-out: LC50 (the source's name); for GI50: read-out: GI50 Conc. per Cell Lines
[2] = test system: RPMI-8226; assay: NCI five-dose assay; format: cell-based, human; conditions: RPMI-8226, Leukemia; for CC50 / GI50: Homo sapiens; for CC50: 48 h, read-out: LC50 (the source's name); for GI50: read-out: GI50 Conc. per Cell Lines
[3] = test system: HCT-15; assay: NCI five-dose assay; format: cell-based, human; conditions: HCT-15, Colon cancer; for CC50 / GI50: Homo sapiens; for CC50: 48 h, read-out: LC50 (the source's name); for GI50: read-out: GI50 Conc. per Cell Lines
[4] = test system: HT29; assay: NCI five-dose assay; format: cell-based, human; conditions: HT29, Colon cancer; for CC50 / GI50: Homo sapiens, HT-29; for CC50: 48 h, read-out: LC50 (the source's name); for GI50: read-out: GI50 Conc. per Cell Lines
[5] = test system: SW-620; assay: NCI five-dose assay; format: cell-based, human; conditions: SW-620, Colon cancer; for CC50 / GI50: Homo sapiens; for CC50: 48 h, read-out: LC50 (the source's name); for GI50: read-out: GI50 Conc. per Cell Lines
[6] = test system: SF-268; assay: NCI five-dose assay; format: cell-based, human; conditions: SF-268, CNS cancer; for CC50 / GI50: Homo sapiens; for CC50: 48 h, read-out: LC50 (the source's name); for GI50: read-out: GI50 Conc. per Cell Lines
[7] = test system: SF-539; assay: NCI five-dose assay; format: cell-based, human; conditions: SF-539, CNS cancer; for CC50 / GI50: Homo sapiens; for CC50: 48 h, read-out: LC50 (the source's name); for GI50: read-out: GI50 Conc. per Cell Lines
[8] = test system: NCI/ADR-RES; assay: NCI five-dose assay; format: cell-based, human; conditions: Ovarian cancer; for LC50 / GI50: Homo sapiens; for LC50: 48 h; for GI50: read-out: GI50 Conc. per Cell Lines
[9] = test system: TK-10; assay: NCI five-dose assay; format: cell-based, human; conditions: TK-10, Renal cancer; for CC50 / GI50: Homo sapiens; for CC50: 48 h, read-out: LC50 (the source's name); for GI50: read-out: GI50 Conc. per Cell Lines
[10] = test system: MDA/MB-231-ATCC; assay: NCI five-dose assay; format: cell-based, human; conditions: Breast cancer; for LC50 / GI50: Homo sapiens; for LC50: 48 h; for GI50: read-out: GI50 Conc. per Cell Lines
[11] = test system: Non-small cell lung cancer subpanel; assay: NCI five-dose assay, subpanel mean; format: cell-based, human; conditions: for GI50: Homo sapiens, average sensitivity of all cell lines of the Non-small cell lung cancer subpanel, read-out: GI50 Subpanel MID b; for GI50 Selectivity Ratio (MID a/MID b): Non-small cell lung cancer subpanel
[12] = test system: Renal cancer subpanel; assay: NCI five-dose assay, subpanel mean; format: cell-based, human; conditions: for GI50: Homo sapiens, average sensitivity of all cell lines of the Renal cancer subpanel, read-out: GI50 Subpanel MID b; for GI50 Selectivity Ratio (MID a/MID b): Renal cancer subpanel
[13] = test system: MDA-MB 231 breast cancer cells; assay: Cell cycle analysis; format: cell-based; conditions: MDA-MB 231, 24 h, IC50 concentration of 7i
Description: The impact of compound 7i on cell cycle progression was investigated in MDA-MB 231 breast cancer cells. […] The cell line was handled with PI/Annexin V, and flow cytometry was utilizing a BD FACS Caliber. […] This indicates a cell cycle arrest at the G1 phase transition.
(§1) The MDA-MB231 breast cancer cell line was used for cell cycle study and apoptosis detection. The assay was performed as previously documented (Appendix A).

[14] = test system: MDA-MB 231 cell; assay: Apoptosis induction assay (Annexin V/PI); format: cell-based; conditions: MDA-MB 231, 24 h
Description: The MDA-MB 231 cell was labeled with Annexin V/PI, cultured for 24 h, and examined to assess the capacity of 7i to induce apoptosis.
as §1

Row | SMILES | CC50 [1] [µM] | GI50 [1] [µM] | CC50 [2] [µM] | GI50 [2] [µM] | TGI Conc. per Cell Lines [3] [µM] | CC50 [3] [µM] | GI50 [3] [µM] | TGI Conc. per Cell Lines [4] [µM] | CC50 [4] [µM] | GI50 [4] [µM] | CC50 [5] [µM] | GI50 [5] [µM] | TGI Conc. per Cell Lines [5] [µM] | CC50 [6] [µM] | GI50 [6] [µM] | CC50 [7] [µM] | GI50 [7] [µM] | TGI Conc. per Cell Lines [7] [µM] | LC50 [8] [µM] | GI50 [8] [µM] | other results
1 | Cc1ccc(C(=O)CSc2nnc(-c3c[nH]c4ccccc34)n2-c2ccccc2)cc1 [Compound 6h, 2-((5-(1H-Indol-3-yl)-4-phenyl-4H-1,2,4-triazol-3-yl)thio)-1-(p-tolyl)ethenone] | > 100 | 22.1 | > 100 | 29.8 | >100 | > 100 | 22.6 | 50.50 | > 100 | 15.6 | > 100 | 30.3 | >100 | > 100 | 24.2 | 54.2 | 15 | 28.50 | 76.8 | 11.9 | TGI Conc. per Cell Lines [1]: ˃100 µM; TGI Conc. per Cell Lines [2]: ˃100 µM; TGI Conc. per Cell Lines [6]: 78.90 µM; TGI Conc. per Cell Lines [8]: 30.20 µM; CC50 [9]: 85 µM; GI50 [9]: 23.2 µM; TGI Conc. per Cell Lines [9]: 44.40 µM; TGI Conc. per Cell Lines [10]: 32.60 µM; LC50 [10]: 69 µM; GI50 [10]: 15.4 µM; GI50 [11]: 14.9 µM; GI50 Selectivity Ratio (MID a/MID b) [11]: 1.29; GI50 [12]: 17 µM; GI50 Selectivity Ratio (MID a/MID b) [12]: 1.13
2 | O/N=C(\CSc1nnc(-c2c[nH]c3ccccc23)n1-c1ccccc1)c1ccc(Br)cc1 [Compound 7i, (Z)-2-((5-(1H-Indol-3-yl)-4-phenyl-4H-1,2,4-triazol-3-yl)thio)-1-(4-bromophenyl) Ethanone Oxime] | > 100 | 2.22 | > 100 | 2.45 | 4.72 | 12.1 | 2.11 | 5.03 | 17.8 | 2.23 | 62.1 | 3.28 | 12.10 | > 100 | 2.37 | 38.4 | 4.04 | 14.20 | 8.08 | 1.9 | TGI Conc. per Cell Lines [8]: 3.92 µM; CC50 [9]: 30.4 µM; GI50 [9]: 2.8 µM; TGI Conc. per Cell Lines [9]: 7.63 µM; TGI Conc. per Cell Lines [10]: 3.26 µM; LC50 [10]: 6.21 µM; GI50 [10]: 1.71 µM; GI50 [11]: 3.23 µM; GI50 Selectivity Ratio (MID a/MID b) [11]: 0.87; GI50 [12]: 2.87 µM; GI50 Selectivity Ratio (MID a/MID b) [12]: 0.98; cells in G0/G1 phase (%DIP G1) [13]: 83%; necrosis percentage (PI/Annexin upper left quadrant) [14]: 3.88%
